How the values were obtained:
[1] = target: T1, Human mitochondrial 5'doxyribonucleotidase NT5M (hdNT-2) (Homo sapiens, UniProt Q9NPB1); assay: Preferred substrate (km), Table 4: NT5M (hdNT-2); type: biochemical; conditions: human NT5M compared with T001, according to Table 4
[2] = test system: PBS2 TMP phosphohydrolase (T001), Thymidylate 5'-phosphohydrolase derived from Bacteriophage PBS2, SEQ ID NO: 3; conditions: Preferred substrate, References: Methods Enzymol. 51:285-290 (1978), Also In house data; cited from earlier work
[3] = target: T1, Human mitochondrial 5'doxyribonucleotidase NT5M (hdNT-2); conditions: Preferred substrate, References: Biochem. 46:13809-13818 (2007), Biochemical Pharmacol. 66: 471-479 (2003); cited from earlier work
[4] = target: Human cytosolic 5'deoxyribonucleotidase hdNT-1 (Homo sapiens, UniProt Q8TCD5); conditions: Preferred substrate, References: J. Biol. Chem. 265:6589-6595 (1990), Biochemical Pharmacol. 66: 471-479 (2003); cited from earlier work
[5] = target: Murine cytosolic 5'deoxyribnucleotidase mdNT-1 (Mus musculus, UniProt Q9JM14); conditions: Preferred substrate, References: J. Biol. Chem. 275:5409-5415 (1990), Biochemical Pharmacol. 66: 471-479 (2003); cited from earlier work
Murine cytosolic 5'deoxyribnucleotidase mdNT-1, sequence (Q9JM14 whole entry): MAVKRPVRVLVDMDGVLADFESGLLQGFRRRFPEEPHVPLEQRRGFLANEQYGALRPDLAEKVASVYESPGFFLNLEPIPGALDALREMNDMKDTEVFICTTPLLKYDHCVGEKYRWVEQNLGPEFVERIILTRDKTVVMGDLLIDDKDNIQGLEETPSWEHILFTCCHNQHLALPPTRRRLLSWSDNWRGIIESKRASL

T1 sequence (Q9NPB1 32-228): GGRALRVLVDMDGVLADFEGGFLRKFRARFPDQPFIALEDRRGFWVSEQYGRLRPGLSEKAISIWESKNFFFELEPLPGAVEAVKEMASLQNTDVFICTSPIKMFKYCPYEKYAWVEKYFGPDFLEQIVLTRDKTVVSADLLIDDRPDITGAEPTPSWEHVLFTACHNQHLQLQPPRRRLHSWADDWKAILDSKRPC
Human cytosolic 5'deoxyribonucleotidase hdNT-1, sequence (Q8TCD5 whole entry): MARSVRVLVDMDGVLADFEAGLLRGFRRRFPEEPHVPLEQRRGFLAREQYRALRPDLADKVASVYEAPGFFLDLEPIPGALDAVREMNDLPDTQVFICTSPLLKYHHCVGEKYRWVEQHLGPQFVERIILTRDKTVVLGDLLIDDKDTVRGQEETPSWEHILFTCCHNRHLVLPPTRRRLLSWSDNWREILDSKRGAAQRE

| Structure (SMILES) | affinity for dTMP, times lower [1] | Km [2] [µM] | Km [3] [µM] | Km [4] [µM] | Km [5] [µM] |
| --- | --- | --- | --- | --- | --- |
| Cc1cn([C@H]2C[C@H](O)[C@@H](COP(=O)(O)O)O2)c(=O)[nH]c1=O [dTMP, thymidylate] | about 30 times | 10 | 300 | 1500 | 1400 |
| Nc1ncnc2c1ncn2[C@H]1C[C@H](O)[C@@H](COP(=O)(O)O)O1 [dAMP] | – | – | – | 3000 | 1000 |
| O=c1ccn([C@H]2C[C@H](O)[C@@H](COP(=O)(O)O)O2)c(=O)[nH]1 [dUMP] | – | 800 | 160 | 1500 | 800 |
| Nc1nc2c(ncn2[C@H]2C[C@H](O)[C@@H](COP(=O)(O)O)O2)c(=O)[nH]1 [dGMP] | – | 700 | 90 | 3300 | 1200 |
